Structures can show the parent of a compound that is named as a salt.

In this assay the test system is urine-derived renal epithelial cells. Put plainly: AP staining of iPSC clones after induction culture (efficiency of AP positive clones). It counts as cell-based, human. To be noted: Example 5, FIG. 11-12. Here is the method:
1. The procedure for AP staining is as follows,
a) Aspirate and remove the growth medium from the cultures to be stained when the cell culture is finished, wash the culture with 1×PBS one time; Fix the cells with 4% paraformaldehyde at room temperature for 2 min;
b) Aspirate the fixing solution, wash the culture with 1×TBST for 3 times; Balance with AP buffer at room temperature for 5 min;
c) Chromogenic reaction was performed with AP chromogenic reagent at room temperature in dark for 15 min (5-15 min, terminated when the color of clones became darker and without background, increase the reaction time appropriately if the clones were not stained). The chromogenic reagent was aspirated, cells were washed with 1×PBS for two times, covered with an appropriate amount of 1×PBS, observed and counted under a microscope.
Alkaline phosphatase (AP) is a phosphomonoesterase. The alkaline phosphatase in the cytoplasm can hydrolyze sodium naphthol phosphate to produce α-naphthol in alkaline environments. The latter reacts with a stable azo salt and presents a deep purple color, which the presence of alkaline phosphatase and the abundance of expression could be determined accordingly. Alkaline phosphatase is highly expressed in undifferentiated pluripotent stem cells, and the activity of alkaline phosphatase in the differentiated pluripotent stem cells is decreased. Therefore, whether the cells are clones of iPSCs could be determined by alkaline phosphatase staining (AP staining). And, thus the efficiency of iPSCs production can be easily judged according to the efficiency of AP positive clones.
In Example 1-2 and 4-6, the efficiency of AP positive clones was determined based on the number of cells in each group after electroporation transformation, ie the efficiency of AP positive clones=number of AP positive clones/number of passaged cells per well after electroporation in each group;
In Example 3 and 7-10, the efficiency of AP positive clones was determined based on the total number of cells after electroporation transformation, i.e. the efficiency of AP positive clones=number of AP positive clones/total number of cells after electroporation transformation.
a) Electroporation transformation: The recombinant plasmids obtained in step 1) were added into the culture of renal epithelial cells after digestion with trypsin, and then transferred into the renal epithelial cells. […]
b) Induction culture: 1-3 days after Step 1), or when the cells reached a confluence of 30% or more, the culture medium of pluripotent stem cell was used to continue induction culture. About 15-30 days after the mature of iPSCs clones, the positive clones of iPSCs were identified by AP staining, and the efficiency of AP positive clones was calculated accordingly;
Turning to `Cc1c[nH]c(-c2cnc(NCCNc3ccc(C#N)cn3)nc2-c2ccc(Cl)cc2Cl)n1` [CHIR-99021], the “preferable concentration (AP staining)” value was found to be 3 µM.

Take `O=C(NOC[C@H](O)CO)c1ccc(F)c(F)c1Nc1ccc(I)cc1F` [PD0325901]: the “preferable concentration (AP staining)” value stood at 0.5 µM. With `CCCC(=O)[O-].[Na+]` [sodium butyrate, Sodium Butyrate] the figure was 250 µM; with `N[C@@H]1C[C@H]1c1ccccc1` [tranylcypromine hydrochloride, Tranylcypromine hydrochloride], 2 µM.

These data come from US20170356005A1, “NON-VIRAL IPSCS INDUCING COMPOSITION AND KITS” (Guangzhou Biocare Biotechnology Co., Ltd, priority 2016, published 2017).
